Reference: PubChem BioAssay AID248 (DTP/NCI, 2004)
Several values for one entry are separate records, joined by “and”; a condition that tells them apart may be missing. Equal entries are not always repeated. Inconclusive results and toxic doses are left out. Cut-off read from the data, not from the text of the source: active = T/C of 150% or more; inactive = T/C below 125%.

Test system: L1210 leukemia ip in BDF1 mice, survival T/C
Experiment: NCI In Vivo Anticancer Drug Screen. Data for tumor model L1210 Leukemia (intraperitoneal) in B6D2F1 (BDF1) mice
Details: endpoint: mean survival time, higher = longer survival
How it was run: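 Mice bearing the transplanted tumor received compound or vehicle. Survival of the treated group was divided by that of the vehicle-treated control group to give the ratio.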

[1] = dose: 100.0 mg/kg/injection, schedule: Q01DX009 (ip), vehicle: saline with Tween-80
[2] = dose: 100.0 mg/kg/injection, schedule: Q04DX003 (ip), vehicle: saline with Tween-80
[3] = dose: 200.0 mg/kg/injection, schedule: Q01DX009 (ip), vehicle: saline with Tween-80
[4] = dose: 200.0 mg/kg/injection, schedule: Q04DX003 (ip), vehicle: saline with Tween-80
[5] = dose: 400.0 mg/kg/injection, schedule: Q04DX003 (ip), vehicle: saline with Tween-80
[6] = dose: 12.5 mg/kg/injection, schedule: Q01DX009 (ip), vehicle: Klucel (hydroxypropylcellulose) (HPC)
[7] = dose: 25.0 mg/kg/injection, schedule: Q01DX009 (ip), vehicle: Klucel (hydroxypropylcellulose) (HPC)
[8] = dose: 400.0 mg/kg/injection, schedule: Q01DX009 (ip), vehicle: Klucel (hydroxypropylcellulose) (HPC)
[9] = dose: 100.0 mg/kg/injection, schedule: Q01DX001 (ip), vehicle: saline
[10] = dose: 200.0 mg/kg/injection, schedule: Q01DX001 (ip), vehicle: saline
[11] = dose: 100.0 mg/kg/injection, schedule: Q04DX003 (ip), vehicle: Klucel (hydroxypropylcellulose) (HPC)
[12] = dose: 200.0 mg/kg/injection, schedule: Q04DX003 (ip), vehicle: Klucel (hydroxypropylcellulose) (HPC)
[13] = dose: 400.0 mg/kg/injection, schedule: Q04DX003 (ip), vehicle: Klucel (hydroxypropylcellulose) (HPC)
[14] = dose: 100.0 mg/kg/injection, schedule: Q04DX002 (ip), vehicle: saline with Tween-80
[15] = dose: 200.0 mg/kg/injection, schedule: Q04DX002 (ip), vehicle: saline with Tween-80
[16] = dose: 400.0 mg/kg/injection, schedule: Q04DX002 (ip), vehicle: saline with Tween-80

Measured: T/C

CCOC(=O)CCC(NC(=O)c1ccc(NCc2nnc3nc(N)nc(N)c3n2)cc1)C(=O)OCC (stereo not given)
inactive: dose: 25.0 mg/kg/injection, schedule: Q01DX001 (ip), vehicle: saline with Tween-80 100 % of control | dose: 50.0 mg/kg/injection, schedule: Q01DX001 (ip), vehicle: saline with Tween-80 95 % of control | dose: 100.0 mg/kg/injection, schedule: Q01DX001 (ip), vehicle: saline with Tween-80 107 % of control

Cc1cccc(SC(=O)Cc2ccc([N+](=O)[O-])cc2)c1
inactive: [1] 91 % of control | [2] 109 % of control | [3] 96 % of control | [4] 102 % of control | [5] 119 % of control

CC(C)(C)NC(=O)NCc1ccco1
inactive: [6] 98 % of control | [7] 98 % of control | dose: 50.0 mg/kg/injection, schedule: Q01DX009 (ip), vehicle: Klucel (hydroxypropylcellulose) (HPC) 101 % of control

CC(=O)NC1C(OC(C)=O)OC(COC(c2ccccc2)(c2ccccc2)c2ccccc2)C(OS(C)(=O)=O)C1OC(C)=O (stereo not given)
inactive: dose: 50.0 mg/kg/injection, schedule: Q04DX003 (ip), vehicle: saline with Tween-80 109 % of control | [2] 109 % of control and 91 % of control | [4] 121 % of control | [5] 88 % of control

O=C1OCC/C1=C/OC(=O)c1ccccc1
inactive: dose: 100.0 mg/kg/injection, schedule: Q04DX002 (ip), vehicle: Klucel (hydroxypropylcellulose) (HPC) 97 % of control | dose: 200.0 mg/kg/injection, schedule: Q04DX002 (ip), vehicle: Klucel (hydroxypropylcellulose) (HPC) 87 % of control

CCOC(=O)CCC(I)C(=O)OCC (stereo not given)
inactive: dose: 3.75 mg/kg/injection, schedule: Q01DX010 (ip), vehicle: saline 98 % of control | dose: 15.0 mg/kg/injection, schedule: Q01DX010 (ip), vehicle: saline 90 % of control

CC(C)N(C)C(C)(C)CO
inactive: dose: 100.0 mg/kg/injection, schedule: Q04DX003 (ip), vehicle: saline sonified 92 % of control | dose: 200.0 mg/kg/injection, schedule: Q04DX003 (ip), vehicle: saline sonified 106 % of control

Cc1ccc([N+](=O)[O-])cc1NC(=O)Nc1cccc(F)c1
inactive: dose: 6.25 mg/kg/injection, schedule: Q01DX009 (ip), vehicle: Klucel (hydroxypropylcellulose) (HPC) 93 % of control | [6] 87 % of control | [7] 92 % of control | [8] 86 % of control

CCCCC(=O)N/N=C/c1ccc(NC(C)=O)cc1
inactive: [9] 102 % of control | [10] 102 % of control | dose: 400.0 mg/kg/injection, schedule: Q01DX001 (ip), vehicle: saline 102 % of control

CCOP(=O)(Nc1ccc2oc(=O)c3ccccc3c2c1)OCC
inactive: dose: 50.0 mg/kg/injection, schedule: Q01DX001 (ip), vehicle: carboxymethylcellulose (CMC) 100 % of control | dose: 100.0 mg/kg/injection, schedule: Q01DX001 (ip), vehicle: carboxymethylcellulose (CMC) 100 % of control | dose: 200.0 mg/kg/injection, schedule: Q01DX001 (ip), vehicle: carboxymethylcellulose (CMC) 110 % of control | dose: 400.0 mg/kg/injection, schedule: Q01DX001 (ip), vehicle: carboxymethylcellulose (CMC) 97 % of control

Clc1cccc(C[N+]23CC[N+](Cc4cccc(Cl)c4)(CC2)C3)c1
inactive: [9] 103 % of control | [10] 111 % of control

CCC(C(=O)O)C(O)(CC(=O)O)C(=O)O (stereo not given)
inactive: dose: 100.0 mg/kg/injection, schedule: Q04DX003 (ip), vehicle: saline 98 % of control | dose: 200.0 mg/kg/injection, schedule: Q04DX003 (ip), vehicle: saline 101 % of control | dose: 400.0 mg/kg/injection, schedule: Q04DX003 (ip), vehicle: saline 95 % of control

N/N=C\C(=N/N)C(O)C(O)C(O)C(O)CO (stereo not given)
inactive: [2] 86 % of control | [4] 88 % of control | [5] 93 % of control

O=S(=O)(NCCCl)c1ccc(Br)cc1
inactive: dose: 100.0 mg/kg/injection, schedule: Q01DX001 (ip), vehicle: other 101 % of control | [2] 95 % of control | dose: 200.0 mg/kg/injection, schedule: Q01DX001 (ip), vehicle: other 90 % of control | [4] 103 % of control | dose: 400.0 mg/kg/injection, schedule: Q01DX001 (ip), vehicle: other 101 % of control | [5] 97 % of control

O=[N+]([O-])c1ccc(C(Cl)C2(Br)C=c3ccccc3=C2)cc1 (stereo not given)
inactive: dose: 100.0 mg/kg/injection, schedule: Q01DX009 (ip), vehicle: Klucel (hydroxypropylcellulose) (HPC) 103 % of control | [11] 105 % of control | dose: 200.0 mg/kg/injection, schedule: Q01DX009 (ip), vehicle: Klucel (hydroxypropylcellulose) (HPC) 98 % of control | [12] 94 % of control | [8] 95 % of control | [13] 97 % of control

CCCCNC(=O)n1nnc2ccccc21
inactive: [14] 100 % of control and 103 % of control | [15] 105 % of control and 92 % of control | [16] 96 % of control and 116 % of control

C/C(=N\N=C(N)N)c1cccs1
inactive: dose: 7.0 mg/kg/injection, schedule: Q01DX Z (oral), vehicle: carboxymethylcellulose (CMC) 101 % of control | dose: 15.0 mg/kg/injection, schedule: Q01DX Z (oral), vehicle: carboxymethylcellulose (CMC) 91 % of control

O=C(/C=C/c1ccccc1)Nc1ccc2ccccc2c1
inactive: [1] 107 % of control and 108 % of control | [14] 102 % of control and 114 % of control | [2] 92 % of control | [3] 96 % of control and 108 % of control | [15] 96 % of control and 102 % of control | [4] 100 % of control | dose: 400.0 mg/kg/injection, schedule: Q01DX009 (ip), vehicle: saline with Tween-80 94 % of control and 101 % of control | [16] 93 % of control and 107 % of control | [5] 101 % of control

Cc1ccc2c(ccc(/C=C/c3ccnc4c(O)cccc34)[n+]2C)c1
inactive: dose: 25.0 mg/kg/injection, schedule: Q01DX001 (ip), vehicle: saline 99 % of control | dose: 35.0 mg/kg/injection, schedule: Q01DX001 (ip), vehicle: saline 111 % of control | dose: 55.0 mg/kg/injection, schedule: Q01DX001 (ip), vehicle: saline 119 % of control | dose: 85.0 mg/kg/injection, schedule: Q01DX001 (ip), vehicle: saline 123 % of control | dose: 132.0 mg/kg/injection, schedule: Q01DX001 (ip), vehicle: saline 115 % of control and 121 % of control | dose: 198.0 mg/kg/injection, schedule: Q01DX001 (ip), vehicle: saline 117 % of control

CCCNC(=O)NS(=O)(=O)c1ccc(Cl)cc1
inactive: [11] 93 % of control | [12] 94 % of control | [13] 104 % of control

N#C/C(=C\c1cccnc1)c1ccc(Br)cc1
inactive: dose: 100.0 mg/kg/injection, schedule: Q01DX009 (ip), vehicle: saline sonified 98 % of control | dose: 200.0 mg/kg/injection, schedule: Q01DX009 (ip), vehicle: saline sonified 100 % of control | dose: 400.0 mg/kg/injection, schedule: Q01DX009 (ip), vehicle: saline sonified 93 % of control

COc1cc(N)c(CC2c3cc(OC)c(OC)cc3CCN2C)cc1OC (stereo not given)
inactive: dose: 75.0 mg/kg/injection, schedule: Q01DX001 (ip), vehicle: carboxymethylcellulose (CMC) 95 % of control | dose: 150.0 mg/kg/injection, schedule: Q01DX001 (ip), vehicle: carboxymethylcellulose (CMC) 95 % of control
